Measurements taken from article PMC9298194, “Clinical Pharmacokinetics of Daprodustat: Results of an Absorption, Distribution, and Excretion Study With Intravenous Microtracer and Concomitant Oral Doses for Bioavailability Determination” (Clinical Pharmacology in Drug Development, 2021).
Where two headings read alike, the source gives them in different places.

Assays:
[1] = Plasma daprodustat pharmacokinetics in healthy male participants (6 mg oral tablet, 50 μg IV microtracer, 25 mg oral solution); assay type: in vivo, human; conditions: for AUC / tmax / Cmax / half-life: plasma daprodustat; for tmax: median (range); for Cmax: arithmetic mean (SD); for half-life: read-out: t½ (converted)
Procedure: On day 1 of treatment period 1, after an overnight fast of at least 8 hours, each participant took a single 6 mg oral dose of daprodustat; participants continued to fast for < 3 hours when a small amount of food was administered to stimulate bile release for the Entero‐Test. After ≈1 hour, participants received 50 μg of [^14C]‐GSK1278863 (≈4.63 kBq; 125 nCi) by IV infusion over 1 hour. Blood samples were collected for 144 hours after oral dosing (until day 7). Participants were discharged on study day 7 after completion of the 144‐hour sample collection. The Entero‐Test was swallowed 3.5 hours before the oral dose of daprodustat (while in the fasted state) and removed 3 hours after the oral dose (about 1 hour after completion of the IV infusion). About 1.5 hours before string withdrawal, a food cue was used to stimulate gallbladder emptying.
On day 1 of treatment period 2, after an overnight fast of at least 8 hours, each participant received 25 mg [^14C]‐GSK1278863 (≈2.31 MBq; 62.5 μCi) as an oral solution; participants continued to fast for 4 hours after dosing.[15] Blood, urine, and fecal samples were collected for a minimum of 144 hours (up to day 7) after dosing, depending on the amount of radioactivity excreted by each participant in excreta collected daily. Liquid scintillation counting (LSC) was performed on these excreta collections on an ongoing basis to assess recovery of the radioactivity dosed. Participants were discharged if ≥90% and <1% of the dose was excreted on both days 6 and 7.
As per standard practice for administration of radiolabeled drug, the IV and oral dosing solutions were analyzed for daprodustat via assessment of the radioactivity and through application of the predetermined specific activity. Whole blood samples were collected for measurement of each of the following: blood total radioactivity in period 2 and plasma total radioactivity in period 1, plasma concentrations of daprodustat, and the 6 predominant circulating metabolites in periods 1 and 2. Blood samples were collected at 1, 3, and 6 hours after dosing for blood assessments. Blood samples were collected for plasma assessments before dosing and at 0.50, 1, 1.25, 1.5, 2, 3, 4, 6, 8, 10, 12, 24, 36, 48, 72, 96, 120, and 144 hours after dosing.
Daprodustat and [^14C]‐GSK1278863 plasma concentrations were measured in treatment period 1: 6 mg daprodustat oral tablet, followed by a 1‐hour IV infusion of 50 μg [^14C]‐GSK1278863, started 1 hour after tablet administration, and in treatment period 2: 25 mg [^14C]‐GSK1278863 oral solution.
Plasma samples from periods 1 and 2 were analyzed for daprodustat and its 6 metabolites by PPD Laboratories using a validated analytical method based on protein precipitation, followed by high‐performance liquid chromatography with tandem mass spectrometric detection analysis, as described previously.[7], [8] Specifically, the lower limit of quantification (LLQ) for this study was 0.100 ng/mL using a 100 μL aliquot of ethylenediaminetetraacetic acid plasma for all 7 analytes. The higher limit of quantification was 100 ng/mL for all 7 analytes. The data accuracy (% bias range: −2.21 to −0.400 to 0.560‐5.85) and precision (% coefficient of variation of 3.99‐7.13) met acceptable limits as recommended by the US Food and Drug Administration in their bioanalytical method validation guidelines.[17] Final PK concentration data for period 1 after 1‐hour samples for daprodustat were further corrected to account for radiolabeled ^14C dose.
Plasma samples collected from period 1 were analyzed for [^14C]‐GSK1278863 by GSK using a validated analytical method, based on protein precipitation, followed by liquid chromatography–AMS analysis. The LLQ was 1.80 pg/mL, using a 600 μL aliquot of human plasma with a higher limit of quantification of 358.92 pg/mL. Accuracy for the 5 validation levels were between −9.2% and 2.2%, and precision was between 2.5% and 10.8%. […]

[2] = healthy volunteers; cited from earlier work
[3] = coadministered with gemfibrozil; cited from earlier work
[4] = 6 mg tablet vs 50 μg IV dose (120-fold dose difference), period 1
[5] = 25 mg oral solution vs 6 mg oral tablet (4.17-fold dose difference)

Q: Which “absolute bioavailability (oral F)” value ([1]; 6 mg oral tablet, based on AUC0‐inf) does the source give for `O=C(O)CNC(=O)C1C(=O)N(C2CCCCC2)C(=O)N(C2CCCCC2)C1=O` [Daprodustat] here?
A: 66.1%

Q: What about the “fold difference in mean AUC0‐t, oral tablet vs IV” value [1, 4] of the same compound?
A: 75.0 fold

Q: And the “fold difference in mean Cmax, oral tablet vs IV” value [1, 4]?
A: 47.2 fold

Q: What about the “fold increase in total exposure (AUC0‐inf), solution vs tablet” value ([1]; 25 mg oral solution vs 6 mg oral tablet) of the same compound?
A: 4.84 fold

Q: What about the “fold increase in mean AUC0‐t, solution vs tablet” value [1, 5] of the same compound?
A: 4.84 fold

Q: What about the “fold increase in mean Cmax, solution vs tablet” value [1, 5] of the same compound?
A: 5.86 fold

Q: And the “Oral F (0‐inf)” value ([1]; absolute bioavailability, 6 mg oral tablet vs IV microtracer, fraction, mean (SD), n = 3)?
A: 0.661 (0.077)

Q: And the clearance ([1]; male, human, blood, 50 μg, translated from plasma CL after IV administration, read-out: blood CL (converted))?
A: ~250 mL/min

Q: What about the AUC ([1]; male, human, plasma, iv, 50 μg, [14C] 50 μg IV infusion, mean (SD), n = 3, read-out: AUC0‐inf) of the same compound?
A: 0.00271 µg·h/mL

Q: What about the AUC ([1]; male, human, plasma, iv, 50 μg, [14C] 50 μg IV infusion, mean (SD), read-out: AUC0‐t) of the same compound?
A: 0.00268 µg·h/mL

Q: And the tmax ([1]; male, human, plasma, iv, 50 μg, [14C] 50 μg IV infusion, read-out: tmax)?
A: 1 h

Q: And the bioavailability ([1]; male, human, plasma, po, 6 mg, 6 mg oral tablet, based on AUC0‐inf, read-out: absolute bioavailability (oral F))?
A: ~66%

Q: What about the AUC ([1]; male, human, plasma, po, 6 mg, 6 mg oral tablet, mean (SD), read-out: AUC0‐inf) of the same compound?
A: 0.202 µg·h/mL

Q: What about the AUC ([1]; male, human, plasma, po, 6 mg, 6 mg oral tablet, mean (SD), read-out: AUC0‐t) of the same compound?
A: 0.201 µg·h/mL

Q: What about the tmax ([1]; male, human, plasma, po, 6 mg, 6 mg oral tablet, read-out: tmax) of the same compound?
A: ~2 h

Q: And the AUC ([1]; male, human, plasma, po, 25 mg, [14C] 25 mg oral solution, mean (SD), read-out: AUC0‐inf)?
A: 0.974 µg·h/mL

Q: And the AUC ([1]; male, human, plasma, po, 25 mg, [14C] 25 mg oral solution, mean (SD), read-out: AUC0‐t)?
A: 0.972 µg·h/mL

Q: And the tmax ([1]; male, human, plasma, po, 25 mg, [14C] 25 mg oral solution, read-out: tmax)?
A: ~0.5 h

Q: What about the Vd ([1]; male, human, plasma, [14C] 50 μg IV infusion, mean (SD), n = 3, read-out: Vss) of the same compound?
A: 14.6 L

Q: And the clearance ([1]; male, human, plasma clearance, [14C] 50 μg IV infusion, mean (SD), n = 3, read-out: CL (converted))?
A: 322 mL/min

Q: And the Cmax ([1]; male, human, 6 mg oral tablet)?
A: 0.0973 µg/mL

Q: What about the half-life ([1]; male, human, 6 mg oral tablet, mean (SD)) of the same compound?
A: 1.92 h

Q: What about the Cmax ([1]; male, human, [14C] 50 μg IV infusion over 1 h) of the same compound?
A: 0.00206 µg/mL

Q: And the half-life ([1]; male, human, [14C] 50 μg IV infusion, mean (SD), n = 3)?
A: 2.07 h

Q: And the Cmax ([1]; male, human, [14C] 25 mg oral solution)?
A: 0.57 µg/mL

Q: What about the half-life ([1]; male, human, [14C] 25 mg oral solution, mean (SD)) of the same compound?
A: 2.6 h

Q: And the tmax ([1]; 6 mg oral tablet)?
A: 2.12 (1.42−4.00) h

Q: What about the tmax ([1]; [14C] 50 μg IV infusion) of the same compound?
A: 0.983 (0.983−0.983) h

Q: And the tmax ([1]; [14C] 25 mg oral solution)?
A: 0.500 (0.500−0.517) h

Q: What about the renal clearance [2] of the same compound?
A: ≈ 0.20 mL/min

Q: And the “increase in the plasma exposure of daprodustat” value [3]?
A: 18.6 fold
